Entries after “also recorded” stand apart in the source; their conditions may differ. Structures can show the parent of a compound that is named as a salt.
Legend:
wt M2TMD21−49 [1] = tested on: wt M2TMD21−49; set-up: species or system influenza A; settings: pH 5.5
[2] = tested on: G34A mutant of M2TMD21−49; set-up: species or system influenza A; settings: pH 5.5
M2TMD21−49 [3] = molecular target: T1, M2TMD21−49 (Influenza A virus, UniProt P0DOF5, L46C)
M2TMD21−49 [4] = molecular target: T1, M2TMD21−49; type: binding; settings: pH 5.5
wt M2TMD21−49 [5] = tested on: wt M2TMD21−49; set-up: species or system influenza A; settings: pH 5.5; remark: listed apart in the source

NC12CC3CC(CC(C3)C1)C2 [amantadine, amantadine hydrochloride]
narrowing of Gaussian widths (σ) in the presence of amantadine (wt M2TMD21−49 [1]): ca. 2 Å
r1, Gaussian mean (proximal distance) (wt M2TMD21−49 [1]): 20.8 Å
r2, Gaussian mean (lateral distance) (wt M2TMD21−49 [1]): 29 Å
shortening of inter-spin distances upon binding of amantadine (wt M2TMD21−49 [1]): 5–8 Å
effect of amantadine on C-terminal conformation / inter-spin distances of G34A mutant [2]: marginal if any effect on M2TMD C-terminal conformation; also recorded: Inter-spin distances do not change upon the addition of amantadine
oligomeric species seen in EM micrographs (M2TMD21−49 [3]): monomers, dimers, and tetramers
reduction of k4d in the presence of amantadine (M2TMD21−49 [4]): 10 -fold
maximum increase in DEER modulation depth upon binding of amantadine (wt M2TMD21−49 [5]): 23–30%

— PMC4965473 (Frontiers in Physiology, 2016)
